Experimental data taken from patent publication US9592224B2, “Substituted benzothiazoles and therapeutic uses thereof for the treatment of human diseases” (CONSEJO SUPERIOR DE INVESTIGACIONES CIENTÍFICAS, priority 2013, dated 2017).

What was measured:
[1] = target: T1, recombinant human enzyme CK-1δ (Homo sapiens, UniProt P48730); assay: Enzyme inhibition assay, Luminometer Kinase-GLO method, CK-1δ; format: biochemical; details: for IC50: casein substrate, 4 μM ATP, 60 minutes at 30° C., read-out: Inhibitory Concentration 50 (IC50) CK-1δ
T1 construct: purchased Millipore Iberica SAU
Procedure: (§1) Enzyme inhibition assays were performed using the Luminometer Kinase-GLO® method. Recombinant human enzyme CK-1δ was purchased from Millipore Iberica SAU and recombinant human enzyme CK-1ε was purchased from Invitrogen. The phosphorylation substration chosen was casein. The Luminescent Kinase Kit (catalogue no. V6711) was obtained from Promega. ATP and other reagents were purchased from Sigma-Aldrich (St. Louis, Mo.).
(§2) The assays were conducted in buffer using 96-well plates. In a typical assay: 10 μL of the test compound (dissolved in dimethylsulfoxide at a concentration of 1 mM and, in turn, dissolved in buffer to the required concentration for the experiment) and 10 μL (16 ng) of the CK-1δ enzyme or 10 μL (50 ng) of the CK-1ε enzyme row were added to each well followed by 20 μL of buffer containing 0.1% casein as substrate and 4 μM of ATP. The assay buffer contained: 50 mM HEPES, pH 7.5; 0.01% Brij-35; 10 mM MgCl2; 1 mM EGTA and 0.01% NaN3. […] After incubating for 60 minutes at 30° C., the enzymatic reaction was stopped using 40 μL of Kinase-GLO® reagent. Luminescence was measured after ten minutes using a FLUOstar Optima (BMG Labtechnologies GmbH, Offenburg, Germany) multimode reader. The activity was proportional to the difference between the total and consumed ATP. Inhibition activities were calculated in accordance with the maximum activity measured in the absence of inhibitor. IC50 is defined as the concentration of each compound that reduces enzyme activity by 50% with respect to that obtained without inhibitor.

[2] = target: T2, recombinant human enzyme CK-1ε (Homo sapiens, UniProt P49674); assay: Enzyme inhibition assay, Luminometer Kinase-GLO method, CK-1ε; format: biochemical; details: for IC50: casein substrate, 4 μM ATP, 60 minutes at 30° C., read-out: Inhibitory Concentration 50 (IC50) CK-1ε
T2 construct: purchased Invitrogen
Procedure: as §1, §2

[3] = in vitro; details: pig, pH 7.4; for Papp at […]: PAMPA
Procedure: To filter the samples, PVDF membrane filters (diameter: 30 mm, pore size: 0.45 μm) were used.
Ten reference compounds were selected, whose blood-brain barrier passage is known and public, in order to validate the experiment. […] The solutions were filtered. Next, 180 μL of a PBS/ethanol (70/30) solution were added to each well of the acceptor plate. The donor plate was impregnated with 4 μL of a porcine brain lipid solution dissolved in dodecane (20 mg mL^−1). After 5 min, 180 μL of dissolution of each compound were added to this plate. Of the compounds whose penetration into the central nervous system was to be assessed, between 1-2 mg were taken and dissolved in 1,500 μL of ethanol and 3,500 μL of PBS (pH=7.4), filtered and added to the donor 96-well plate. The donor plate was then placed on the acceptor forming a kind of “sandwich” and allowed to incubate for 2 hours and 30 min at 25° C. The compounds, by passive transport, will move from the donor plate through the porcine brain lipid to the acceptor plate. After 2 hours and 30 min, it was carefully removed from the donor plate. The concentration and absorbance, both of the commercial compounds and the synthesised derivatives evaluated in the acceptor and donor plates were determined using a UV absorbance reader. Each sample was analysed at different wavelengths (3 to 5) in three wells and in at least two independent experiments.

[4] = literature value, Di et al, 2003; cited from earlier work

T1 sequence (P48730 whole entry): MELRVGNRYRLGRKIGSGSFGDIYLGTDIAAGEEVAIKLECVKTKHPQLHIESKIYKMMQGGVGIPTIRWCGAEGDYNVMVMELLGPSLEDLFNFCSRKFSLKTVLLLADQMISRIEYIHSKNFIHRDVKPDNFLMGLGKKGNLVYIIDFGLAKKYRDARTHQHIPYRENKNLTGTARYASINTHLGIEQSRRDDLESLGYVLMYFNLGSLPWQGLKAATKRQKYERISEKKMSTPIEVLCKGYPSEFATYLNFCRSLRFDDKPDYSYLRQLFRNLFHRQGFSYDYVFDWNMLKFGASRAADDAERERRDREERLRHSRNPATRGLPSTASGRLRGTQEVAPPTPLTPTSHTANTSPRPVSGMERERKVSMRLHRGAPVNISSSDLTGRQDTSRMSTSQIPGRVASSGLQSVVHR
T2 sequence (P49674 whole entry): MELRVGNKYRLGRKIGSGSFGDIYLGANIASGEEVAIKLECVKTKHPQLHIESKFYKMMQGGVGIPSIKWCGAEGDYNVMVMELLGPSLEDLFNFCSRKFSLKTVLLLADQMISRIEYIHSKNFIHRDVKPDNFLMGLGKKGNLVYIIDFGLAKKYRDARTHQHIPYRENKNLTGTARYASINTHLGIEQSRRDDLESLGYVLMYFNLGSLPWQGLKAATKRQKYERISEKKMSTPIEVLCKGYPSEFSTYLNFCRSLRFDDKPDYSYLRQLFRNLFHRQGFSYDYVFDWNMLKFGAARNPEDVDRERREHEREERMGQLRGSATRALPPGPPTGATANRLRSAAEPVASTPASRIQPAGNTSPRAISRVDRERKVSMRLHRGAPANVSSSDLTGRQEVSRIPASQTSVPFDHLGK

Row | SMILES | IC50 [1] | IC50 [2] | Papp at […] [3] | further results
1 | O=C(Cc1ccccc1)Nc1nc2ccccc2s1 [Compound 14, N-(benzothiazole-2-yl)-2-phenylacetamide] | 0.33 µM | 2.31 µM | 12.7 ± 1.2 ×10⁻⁶ cm/s | 
2 | O=C(Cc1cccc(Cl)c1)Nc1nc2ccccc2s1 [Compound 20, N-(benzothiazole-2-yl)-2-(3-chlorophenyl)acetamide] | 0.85 µM | 2.86 µM | 10.6 ± 0.3 ×10⁻⁶ cm/s | 
3 | COc1ccc2nc(NC(=O)Cc3ccccc3OC)sc2c1 [Compound 51, N-(6-methoxybenzothiazole-2-yl)-2-(2-methoxyphenyl)acetamide] | 2.22 µM |  | 11.2 ± 0.9 ×10⁻⁶ cm/s | inhibition at 10 µM [2]: 33%
4 | CCOc1ccc2nc(NC(=O)Cc3ccccc3OC)sc2c1 [Compound 52, N-(6-ethoxybenzothiazole-2-yl)-2-(2-methoxyphenyl)acetamide] | 5.76 µM |  |  | inhibition at 10 µM [2]: 46%
5 | COc1ccc2nc(NC(=O)Cc3ccc(Cl)c(Cl)c3)sc2c1 [Compound 53, N-(6-methoxybenzothiazole-2-yl)-2-(3,4-dichlorophenyl)acetamide] | 1.24 µM | 16.5 µM |  | 
6 | CCOc1ccc2nc(NC(=O)Cc3ccc(Cl)c(Cl)c3)sc2c1 [Compound 54, N-(6-ethoxybenzothiazole-2-yl)-2-(3,4-dichlorophenyl)acetamide] | 3.43 µM | 14.2 µM |  | 
7 | COc1ccc2nc(NC(=O)Cc3cc(OC)c(OC)c(OC)c3)sc2c1 [Compound 55, N-(6-methoxybenzothiazole-2-yl)-2-(3,4,5-trimethoxyphenyl)acetamide] | 6.65 µM | 17.7 µM |  | 
8 | CCOc1ccc2nc(NC(=O)Cc3cc(OC)c(OC)c(OC)c3)sc2c1 [Compound 56, N-(6-ethoxybenzothiazole-2-yl)-2-(3,4,5-trimethoxyphenyl)acetamide] | 1.43 µM | 9.83 µM |  | 
9 | COc1cc(/C=C/C(=O)Nc2nc3ccc(S(=O)(=O)N(C)C)cc3s2)cc(OC)c1OC [Compound 57, (E)-N-(6-(N,N-dimethylsulfamoyl)benzothiazole-2-yl)-3-(3,4,5-trimethoxyphenyl) acrylamide] |  |  |  | CK-1δ inhibition % @ 10 μM ([1]; @ 10 μM): 10% @; CK-1ε inhibition % @ 10 μM ([2]; @ 10 μM): 10% @
10 | COc1ccccc1CC(=O)Nc1nc2ccc(F)cc2s1 [Compound 59, N-(6-fluorobenzothiazole-2-yl)-2-(2-methoxyphenyl)acetamide] | 1.17 µM | 4.51 µM |  | 
11 | CN1C(C(=O)Nc2ccccn2)=C(O)c2ccccc2S1(=O)=O [Piroxicam, reference compound] |  |  |  | Pe (10^−6 cm s^−1) PAMPA-blood-brain barrier permeation ([3]; […]): 0.2 ± 0.1 10^−6 cm s^−1; Bibl. PAMPA-blood-brain barrier permeation (Pe) [4]: 2.5 10^−6 cm s^−1
12 | CN(C)CCCN1c2ccccc2Sc2ccccc21 [Promazine, reference compound] |  |  | 8.5 ± 0.1 ×10⁻⁶ cm/s | Bibl. PAMPA-blood-brain barrier permeation (Pe) [4]: 8.8 10^−6 cm s^−1

Now from value to molecule, other results behind:

Row | IC50 [1] | IC50 [2] | Papp at […] [3] | SMILES | further results
13 | 0.065 µM | 0.55 µM | 9.6 ± 0.1 ×10⁻⁶ cm/s | O=C(Cc1ccc(Cl)cc1)Nc1nc2ccc(C(F)(F)F)cc2s1 [Compound 1, N-(6-trifluoromethylbenzothiazole-2-yl)-2-(4-chlorophenyl)acetamide] | 
14 | 0.033 µM | 0.7 µM | 14.6 ± 0.1 ×10⁻⁶ cm/s | COc1ccc(CC(=O)Nc2nc3ccc(C(F)(F)F)cc3s2)cc1 [Compound 3, N-(6-trifluoromethylbenzothiazole-2-yl)-2-(4-methoxyphenyl)acetamide] | 
15 | 0.023 µM | 0.84 µM | 5.9 ± 0.5 ×10⁻⁶ cm/s | O=C(Cc1cccc(Cl)c1)Nc1nc2ccc(C(F)(F)F)cc2s1 [Compound 4, N-(6-trifluoromethylbenzothiazole-2-yl)-2-(3-chlorophenyl)acetamide] | 
16 | 0.083 µM | 0.88 µM | 5.6 ± 0.8 ×10⁻⁶ cm/s | Cc1ccc2nc(NC(=O)Cc3cccc(Cl)c3)sc2c1 [Compound 5, N-(6-methylbenzothiazole-2-yl)-2-(3-chlorophenyl)acetamide] | 
17 | 0.042 µM | 0.69 µM | 11.2 ± 2 ×10⁻⁶ cm/s | COc1cccc(CC(=O)Nc2nc3ccc(C(F)(F)F)cc3s2)c1 [Compound 6, N-(6-trifluoromethylbenzothiazole-2-yl)-2-(3-methoxyphenyl)acetamide] | 
18 | 0.01 µM | 0.8 µM | 11.3 ± 2.1 ×10⁻⁶ cm/s | COc1ccccc1CC(=O)Nc1nc2ccc(C(F)(F)F)cc2s1 [Compound 8, N-(6-trifluoromethylbenzothiazole-2-yl)-2-(2-methoxyphenyl)acetamide] | 
19 | 0.015 µM | 0.37 µM | 10.6 ± 0.1 ×10⁻⁶ cm/s | COc1cc(CC(=O)Nc2nc3ccc(C(F)(F)F)cc3s2)cc(OC)c1OC [Compound 10] | 
20 | 0.047 µM | 0.76 µM | 10.4 ± 3.9 ×10⁻⁶ cm/s | O=C(Cc1ccccc1)Nc1nc2ccc(C(F)(F)F)cc2s1 [Compound 12, N-(6-trifluoromethylbenzothiazole-2-yl)-2-phenylacetamide] | 
21 | 0.29 µM | 4.93 µM | 6.2 ± 0.5 ×10⁻⁶ cm/s | COc1ccccc1CC(=O)Nc1nc2ccc(C)cc2s1 [Compound 30, N-(6-methylbenzothiazole-2-yl)-2-(2-methoxyphenyl)acetamide] | 
